Test results as given in patent US20050075284A1, “Pharmaceutical compositions comprising vip-related peptides for the treatment of sexual disorders” (priority 2001, published 2005).
Entries after “also recorded” stand apart in the source; their conditions may differ. Where no end group is shown, it is not given here.

Legend:
[1] = cited from earlier work
vaginal muscle = assay: Rabbit vaginal contraction in organ bath (force transducer); assay type: cell-based, New Zealand female rabbit
Protocol: The vagina of 12-week-old New Zealand female rabbit was removed, exiced to 1 cm length and immersed in 10 ml of capacity organ bath connected to an external reservoir of Krebs-Henseleit in constant temperature of 37° C. The solution was oxygenated (95%O2/[…]). The effect of VIP and SNV on vaginal contraction was measured by attaching the vaginal muscle to a force transducer.

cGMP formation = conditions: versus VIP; cited from earlier work
[2] = tested on: uterine smooth muscle activity and vaginal blood flow; conditions: systemic administration to females; cited from earlier work
penile erection = conditions: in the male; cited from earlier work

Row | Substance | bioavailability [1] | effect on contraction force (inotropic effect) (vaginal muscle; 0.3 μM peptide, 0.5 μM phenylephrine, FIG. 2) | effect on rate of vaginal contraction (vaginal muscle; 0.3 μM peptide, contraction stimulated by 0.5 μM phenylephrine, FIG. 2) | effect on vaginal contraction at high concentration (vaginal muscle; 1.5 μM peptide (b76 prints 1.5 M), contraction stimulated by 0.5 μM phenylephrine, FIG. 3) | potency in enhancing cGMP formation relative to VIP (cGMP formation) [fold] | effect on vaginal contraction (vaginal muscle; 0.3 μM peptide, preliminary results, FIG. 1) | uterine smooth muscle activity [2] | vaginal blood flow [2] | penile erection (penile erection)
1 | Stearoyl-norleucine^17-VIP [SNV] | increased stability and bioavailability | reduced the contraction force | attenuated the rate of vaginal contraction | blocked vaginal contraction; also recorded: neutralized vaginal contraction | 1000 | – | – | – | –
2 | vasoactive intestinal peptide (HSDAVFTDNYTRLRKQMAVKKYLNSILN; ends and bridges not checked; UniProt P01282 125-152, looked up) [VIP] | – | – | – | – | – | neutralized vaginal contraction | decrease uterine smooth muscle activity | increase vaginal blood flow | induces penile erection
